The record followed here is article PMC9797592, “TJ-M2010-5, a novel CNS drug candidate, attenuates acute cerebral ischemia-reperfusion injury through the MyD88/NF-κB and ERK pathway” (Frontiers in Pharmacology, 2022).

Test [1] deals with LPS-stimulated BV-2 cells. The test can be described thus: LPS-stimulated BV-2 cell model: morphology and TNF-α/IL-6 ELISA. The settings on record: LPS-stimulated BV-2 cells; pretreatment 2 h, LPS 24 h; ELISA. The test is classed as cell-based. How it is done:
BV-2 microglial and SH-SY5Y cells were cultured as previously described ([Zhao et al., 2020]). A lipopolysaccharide (LPS)-stimulated BV-2 cell model was established to mimic severe neuroinflammation induced by multiple inflammatory mediators after reperfusion ([Li et al., 2021]). BV-2 cells were pretreated with different concentrations of TJ-5 for 2 h before LPS (1 μg/ml) stimulation (#L2880, Sigma, United States). Twenty-4 hours later, BV-2 cells and the culture supernatants were harvested for subsequent experiments. In addition, ST2825, a recognized MyD88 inhibitor, was used as positive control group.
Enzyme-linked immunosorbent assay (ELISA) kits were used to detect the levels of TNF-α, IL-1β, and IL-6 in the brain. Brain tissue was homogenized in 1 ml of phosphate-buffered saline using a tissue homogenizer. Then, the homogenates were centrifuged at 14,000 g for 10 min at 4 °C. The supernatant was immediately transferred for measurement following the manufacturer’s instructions. BV-2 cells were incubated with different treatments and the supernatants were collected and measured.
Background: An ELISA detects its analyte on a solid surface through an enzyme-linked reagent.

A further test relates to NF-κB p65. As to the kind of experiment: NF-κB p65 nuclear translocation in LPS-stimulated BV-2 cells, immunofluorescence. The settings on record: 12 h after LPS stimulation. It is filed as cell-based. How it is done:
BV-2 microglial and SH-SY5Y cells were cultured as previously described ([Zhao et al., 2020]). A lipopolysaccharide (LPS)-stimulated BV-2 cell model was established to mimic severe neuroinflammation induced by multiple inflammatory mediators after reperfusion ([Li et al., 2021]). BV-2 cells were pretreated with different concentrations of TJ-5 for 2 h before LPS (1 μg/ml) stimulation (#L2880, Sigma, United States). […] In addition, ST2825, a recognized MyD88 inhibitor, was used as positive control group.
For BV-2 cells immunofluorescence staining, the cells were fixed with 4% paraformaldehyde for 10 min and permeabilized with 0.5% Triton X-100 for 10 min. After blocking with goat serum, the cells were sequentially incubated with the primary antibody, secondary antibody, and Hoechst in sequence. Images were captured using a confocal microscope. The fluorescence intensity was analyzed using ImageJ software.

The test system of another test is CIRI mice. The test can be described thus: MCAO cerebral ischemia-reperfusion injury model: neurological deficit score and TTC infarct volume. The settings on record: edaravone 3 mg/kg i.v. at 1 h of ischemia; 24 h reperfusion; TTC; I/R group 34.24%. The test is classed as in vivo, C57BL/6 mice. How it is done: Male C57BL/6 mice (Beijing Vital River Laboratory Animal Technology Co. Ltd., Beijing, China) weighing 22–28 g and aged 8–10 weeks were used. All animal experiments were approved by the Institutional Animal Care and Use Committee of Tongji Hospital (Wuhan, China). All procedures were performed in accordance with specific pathogen-free standards. Mice were randomly divided into the following seven groups: sham, I/R, vehicle (I/R + saline), I/R + TJ-5 (5 mg/kg), I/R + TJ-5 (10 mg/kg), I/R + TJ-5 (15 mg/kg), and I/R + edaravone (3 mg/kg).
The mice were anesthetized with 1% pentobarbital sodium solution via intraperitoneal injection, and the body temperature was maintained at 37.0°C–37.5°C. The middle cerebral artery occlusion (MCAO) model was established according to the Longa method, as described previously ([Longa et al., 1989]). In brief, the right carotid artery was carefully separated and exposed. A silicon-coated embolic suture (Doccol, United States) was inserted slowly from the external carotid artery (ECA) into the internal carotid artery (ICA) until it reached the middle cerebral artery (MCA). After 1 h of ischemia, the embolic suture was withdrawn. The surgical procedure in the sham group was the same as that in the I/R group, but the MCA was not obstructed.
After 24 h of reperfusion, each group of mice was scored blindly, according to the scoring system of the Longa method ([Longa et al., 1989]). The score was 0 for no obvious neurological deficit, one for inability to fully extend the left forelimb, two for turning to the left, three for leaning to the left while walking, and four for the inability to walk spontaneously and impaired consciousness.
The mice were sacrificed 24 h after I/R. Mouse brains were harvested for the measurement of cerebral infarct volume. The brains were frozen at −80°C for 5 min and cut into five 2-mm thick slices. The slices were then placed in a small dish, 2% 2,3,5-triphenyltetrazolium chloride (TTC) solution (Sigma, United States) was added, and 4% paraformaldehyde was used for fixation. Images were captured using a digital camera. ImageJ software was used to measure the volume of the brain infarction.

As to `NC(=O)[C@H]1CCS[C@@H]2C[C@]3(CCCN3C(=O)Cc3ccc(NC(=O)COc4ccc(Cl)cc4Cl)cc3)C(=O)N12` [ST2825, reference compound], the “levels of TNF-α and IL-6 in supernatants” value in test [1] is “same anti-inflammatory effect”. Further, the “LPS-induced NF-κB p65 nuclear translocation” value with NF-κB p65 is recorded as “same”.
Consider `CC1=NN(c2ccccc2)C(=O)C1` [edaravone, reference compound], for which, in the test with CIRI mice, the “percentage of infarct volume” value was determined as 18.59%.
